Data reported in patent publication US4346087A, “Antibacterial surface active agent containing azaalkenelactam” (priority 1979, dated 1982).
In brackets after ≈: the same amount, converted by molar mass. Where two headings read alike, the source gives them in different places.

Tests used:
Format in all cases: cell-based
[1] = tested on: Staphylococcus aureus FDA 209P; assay: MIC against Staphylococcus aureus FDA 209P
From the text: (§1) Below are described the antibacterial activities of the compounds in the compositions according to this invention.
(§2) The testing method complied with the standard method of Japan Sociaty of Chemotherapy.

Escherichia coli NIHJ = assay: MIC against Escherichia coli NIHJ
From the text: as §1, §2

[2] = tested on: Desulfovibrio desulfuricans IFO 13699; assay: MIC against Desulfovibrio desulfuricans
From the text: as §1, §2

[3] = Staphylococcus aureus, FDA209P, 24 h
[4] = Escherichia coli, Table 1, azaalkenelactams, heart infusion agar, 37° C., 24 hours, read-out: MIC
[5] = Desulfovibrio desulfuricans, IFO13699, 24 h
[6] = Escherichia coli, Table 2, derivatives having a carboxylate radical, heart infusion agar, 37° C., 24 hours, read-out: MIC
[7] = Table 1, azaalkenelactams, heart infusion agar, 37° C., 24 hours
[8] = Staphylococcus aureus, FDA209P, Table 2, derivatives having a carboxylate radical, heart infusion agar, 37° C., 24 hours, read-out: MIC

Row | Compound | MIC [1, 3] [µg/mL] | MIC [2, 5] [µg/mL] | MIC (Escherichia coli NIHJ; Escherichia coli, 24 h) [µg/mL] | also measured
1 | CCCCCCCCCc1ccc(OCC(O)CNCCNCCNCCN2CCN=C(C)CC2=O)cc1 (stereo not drawn) [Example 32, 4-nonylphenoxy(2-hydroxy)propylaminoethylaminoethylaminoethyl-7-methyl-3,6-dihydro-2H-1,4-diazepin-5-one] | 200 (≈ 376 µM) | 25 (≈ 47 µM) | – | MIC (Escherichia coli NIHJ; [4]): 800 µg/mL (≈ 1500 µM)
2 | CCCCCCCCCCCCCCNCCN1CCC[N+](C(C)C(=O)[O-])=CC(C)(C)C1=O (stereo not drawn) [1-tetradecylaminoethyl-3,3-dimethyl-1-aza-5-azoniacyclooct-4-en-2-one-5-propionate] | 12.5 (≈ 26.8 µM) | 6.25 (≈ 13.4 µM) | 100 (≈ 215 µM) | –
3 | 1-behenoyloxypropyl-3-methyl-1-aza-5-azoniacyclooct-4-en-2-one-5-acetate | – | – | – | MIC [1]: 50 µg/mL; MIC (Escherichia coli NIHJ): 100 µg/mL; MIC [2]: 25 µg/mL
4 | CCCCCCCCCCC(O)CN1CC[N+](CC(=O)[O-])=CC(C)C1=O (stereo not drawn) [4-(2-hydroxy)dodecyl-6-methyl-1-azonia-4-azacyclohept-7-en-5-one-1-acetate] | 25 (≈ 67.8 µM) | 25 (≈ 67.8 µM) | – | MIC (Escherichia coli NIHJ; [6]): 800 µg/mL (≈ 2170 µM)
5 | CCCCCCCCCCCCN1CCCN=CC(C)C1=O (stereo not drawn) [Example 44, 1-dodecyl-3-methyl-3,6,7,8-tetrahydro-1,5-diazocin-2-one] | 50 (≈ 162 µM) | 25 (≈ 81 µM) | – | MIC (Escherichia coli NIHJ; [4]): 800 µg/mL (≈ 2590 µM)
6 | CCCCCCCCCCCC(=O)NCCN1CC[N+](CC(=O)[O-])=CC(C)C1=O (stereo not drawn) [4-lauramidoethyl-6-methyl-1-azonia-4-azacyclohept-7-en-5-one-1-acetate] | 12.5 (≈ 30.5 µM) | 6.25 (≈ 15.3 µM) | 50 (≈ 122 µM) | –
7 | CCCCCCCCCCCCCCCCCCCCCC(=O)OCCCN1CCCN=CC(C)C1=O (stereo not drawn) [Example 51, 1-behenoyloxypropyl-3-methyl-3,6,7,8-tetrahydro-1,5-diazocin-2-one] | – | – | – | MIC [1, 7]: 25 µg/mL (≈ 48 µM); MIC (Escherichia coli NIHJ; [7]): 100 µg/mL (≈ 192 µM); MIC [2]: 12.5 µg/mL (≈ 24 µM)
8 | CCCCCCCCCCCC[N+](C)(C)CC(=O)[O-] [Lauryldimethylbetaine, lauryldimethylbetaine, reference compound] | – | – | – | MIC [1, 8]: ≥ 10000 µg/mL; MIC (Escherichia coli NIHJ; [6]): ≥ 10000 µg/mL; MIC ([2]; Desulfovibrio desulfuricans, IFO13699, Table 2, derivatives having a carboxylate radical, heart infusion agar, 37° C., 24 hours, read-out: MIC): 1600 µg/mL (≈ 5890 µM)
9 | CCCCCCCC(=O)NCCN1CC[N+](CC(=O)[O-])=C(C)CC1=O [4-octamidoethyl-7-methyl-1-azonia-4-azacyclohept-7-en-5-one-1-acetate] | – | 50 (≈ 141 µM) | 100 (≈ 283 µM) | MIC [1, 8]: 800 µg/mL (≈ 2260 µM)
10 | CCCCCCCCCCCCN1CCN=C(C)CC1=O [Example 1, 4-dodecyl-7-methyl-3,6-dihydro-2H-1,4-diazepin-5-one] | – | 6.25 (≈ 21.2 µM) | – | MIC ([1]; Staphylococcus aureus, FDA209P, Table 1, azaalkenelactams, heart infusion agar, 37° C., 24 hours, read-out: MIC): 50 µg/mL (≈ 170 µM); MIC (Escherichia coli NIHJ; [4]): 1600 µg/mL (≈ 5430 µM)
11 | CCCCCCCCCCCCCCC(O)CNCCN1CC[N+](CC(=O)[O-])=CC(C)(C)C1=O (stereo not drawn) [4-(2-hydroxyhexadecyl)aminoethyl-6,6-dimethyl-1-azonia-4-azacyclohept-7-en-5-one-1-acetate] | 12.5 (≈ 25.9 µM) | 6.25 (≈ 13 µM) | 200 (≈ 415 µM) | –
12 | CCCCCCCCCCCCCCCCCCCCC(O)CNCCNCCN1CCCN=C(C)CC1=O (stereo not drawn) [Example 30, 1-(2-hydroxy)docosylaminoethylaminoethyl-4-methyl-3,6,7,8-tetrahydro-1,5-diazocin-2-one] | 12.5 (≈ 22.7 µM) | – | 25 (≈ 45.4 µM) | MIC ([2]; Desulfovibrio desulfuricans, IFO13699, Table 1, azaalkenelactams, heart infusion agar, 37° C., 24 hours, read-out: MIC): 3.12 µg/mL (≈ 5.66 µM)
13 | CCCCCCCCCCCCN1CCN=CC(C)C1=O (stereo not drawn) [Example 42, 4-dodecyl-6-methyl-3,6-dihydro-2H-1,4-diazepin-5-one] | 12.5 (≈ 42.4 µM) | 6.25 (≈ 21.2 µM) | 400 (≈ 1360 µM) | –
14 | CCCCCCCCCCCCNCCCN1CCCN=C(C)CC1=O [Example 36, 1-dodecylaminopropyl-4-methyl-3,6,7,8-tetrahydro-1,5-diazocin-2-one] | 12.5 (≈ 34.2 µM) | 25 (≈ 68.4 µM) | 50 (≈ 137 µM) | –
15 | 1-coconutalkyl-4-methyl-3,6,7,8-tetrahydro-1,5-diazocin-2-one [Example 15] | – | – | – | MIC [1]: 50 µg/mL; MIC (Escherichia coli NIHJ; [7]): 1600 µg/mL; MIC [2]: 6.25 µg/mL
16 | 4-(2-hydroxyhexadecyl)aminoethyl-6-methyl-1-azonia-4-azacyclohept-7-en-5-one-1-acetate | – | – | – | MIC [1]: 12.5 µg/mL; MIC (Escherichia coli NIHJ): 100 µg/mL; MIC ([2]; Table 2, derivatives having a carboxylate radical, heart infusion agar, 37° C., 24 hours): 3.12 µg/mL
17 | CCCCCCCCCCCCNCCNCCNCCCN1CCC[N+](CC(=O)[O-])=C(C)CC1=O [1-dodecylaminoethylaminoethylaminopropyl-4-methyl-1-aza-5-azoniacyclooct-4-en-2-one-5-acetate] | 12.5 (≈ 24.5 µM) | 25 (≈ 49 µM) | 100 (≈ 196 µM) | –
18 | CCCCCCCCOCCCN1CCN=CC(C)(C)C1=O [Example 63, 4-octoxypropyl-6,6-dimethyl-3-hydro-2H-1,4-diazepin-5-one] | 100 (≈ 322 µM) | 50 (≈ 161 µM) | 400 (≈ 1290 µM) | –
